Test results as given in patent US11465987B2, “Compounds for treatment of cancer” (ONCTERNAL THERAPEUTICS, INC., priority 2012, dated 2022).
Where two headings read alike, the source gives them in different places.

Key:
[1] = Pharmacokinetic study in Sprague-Dawley rats; details: rat, oral
[2] = system: B16-F1 mouse melanoma cell line; assay: Cytotoxicity (SRB) assay, B16-F1; format: cell-based; details: Mus musculus
[3] = system: A375 human melanoma cell line; assay: Cytotoxicity (SRB) assay, A375; format: cell-based; details: Homo sapiens
[4] = system: PC-3 human prostate cancer cell line; assay: cells
Description: (§1) Cells were stained with SRB solution.

[5] = system: PPC-1 human prostate cancer cell line; assay: Cytotoxicity (SRB) assay, PPC-1; format: cell-based; details: Homo sapiens, PPC-1, Table 11; read-out: IC50, PPC-1
Description: as §1

[6] = system: WM-164 human melanoma cell line; assay: Cytotoxicity (SRB) assay, WM-164; format: cell-based; details: Homo sapiens
[7] = system: LNCaP human prostate cancer cell line; assay: Cytotoxicity (SRB) assay, LNCaP; format: cell-based; details: Homo sapiens, LNCaP
Description: as §1

[8] = system: melanoma and prostate cancer cell lines; assay: Antiproliferative activity summarised over the cell line panel (range or average); format: cell-based
[9] = system: DU 145 human prostate cancer cell line; assay: Cytotoxicity (SRB) assay, DU 145; format: cell-based; details: Homo sapiens, DU-145, Table 11; read-out: IC50, Du 145
Description: as §1

[10] = system: MDA-MB-435/LCCMDR1 multidrug-resistant melanoma cells; assay: Cytotoxicity (SRB) assay, MDA-MB-435/LCCMDR1; format: cell-based
[11] = B16-F1, Table 11, read-out: IC50, B16-F1
[12] = A-375, Table 11, read-out: IC50, A375
[13] = WM164, Table 11, read-out: IC50, WM164
[14] = Table 11, read-out: IC50, LNCaP
[15] = Tables 11-13, read-out: IC50 (average of all seven cell lines)
[16] = B16-F1, Table 12, read-out: IC50 ± SEM, B16-F1 (converted)
[17] = A-375, Table 12, read-out: IC50 ± SEM, A375 (converted)
[18] = Homo sapiens, read-out: IC50 ± SEM, PC-3, Table 12
[19] = WM164, Table 12, read-out: IC50 ± SEM, WM164 (converted)

SMILES | increased exposure (AUC) by the oral route compared to 1h [1] | IC50 [2, 11] [µM] | IC50 [3, 12] [µM] | IC50 ([4]; read-out: IC50, PC-3, Table 11) [µM] | IC50 [5] [µM] | IC50 [6, 13] [µM] | IC50 [7, 14] [µM] | IC50 [8, 15] [µM] | IC50 [9] [µM] | IC50 ([10]; Homo sapiens, MDA-MB-435/LCCMDR1, read-out: IC50 MDR melanoma cell line) [µM] | resistance index ([10]; MDA-MB-435/LCCMDR1 vs MDA-MB-435) | IC50 [2, 16] [µM] | IC50 [3, 17] [µM] | IC50 [4, 18] [µM] | IC50 [6, 19] [µM] | IC50 ([7]; Table 12, read-out: IC50 ± SEM, LNCaP (converted)) [µM] | IC50 ([8]; read-out: IC50 (range over tested cell lines)) [µM]
COc1cc(C(=O)c2csc(Nc3ccc(F)cc3)n2)cc(OC)c1OC.Cl [5Hc, (2-(p-fluorophenylamino)thiazol-4-yl)(3,4,5-trimethoxyphenyl)methanone hydrochloride salt] | more than 4.3 fold |  |  |  |  |  |  |  |  |  |  |  |  |  |  |  | 
O=S(=O)(c1ccccc1)n1ccnc1-c1ccccc1 [10a, 2-phenyl-1-(phenylsulfonyl)-1H-imidazole] |  | > 10 | > 10 | > 10 | > 10 | > 10 | > 10 | > 10 | > 10 |  |  |  |  |  |  |  | 
O=S(=O)(c1ccccc1)n1ccnc1-c1ccc(OCc2ccccc2)cc1 [10j, 2-(4-(benzyloxy)phenyl)-1-(phenylsulfonyl)-1H-imidazole] |  | > 10 | > 10 | > 10 | > 10 | > 10 | > 10 | > 10 | > 10 |  |  |  |  |  |  |  | 
O=[N+]([O-])c1ccc(-c2nccn2S(=O)(=O)c2ccccc2)cc1 [10x, 2-(4-nitrophenyl)-1-(phenylsulfonyl)-1H-imidazole] |  | > 10 | > 10 | > 10 | > 10 | > 10 | > 10 | > 10 | > 10 |  |  |  |  |  |  |  | 
O=C(c1ccc(F)cc1)c1cn(S(=O)(=O)c2ccccc2)c(-c2ccc(Cl)cc2)n1 [11fb, (2-(4-chlorophenyl)-1-(phenylsulfonyl)-1H-imidazol-4-yl)(4-fluorophenyl)methanone] |  |  |  |  |  |  |  |  |  | 0.035 | 0.7 |  |  |  |  |  | 
COc1cc(C(=O)n2ccnc2-c2ccccc2)cc(OC)c1OC [12aaa, (2-phenyl-1H-imidazol-1-yl)(3,4,5-trimethoxyphenyl)methanone] |  | > 10 | > 10 | > 10 | > 10 | > 10 | > 10 | > 10 | > 10 |  |  |  |  |  |  |  | 
COc1ccc(C(=O)n2ccnc2-c2ccccc2)cc1 [12aba, (4-methoxyphenyl)(2-phenyl-1H-imidazol-1-yl)methanone] |  | > 10 | > 10 | > 10 | > 10 | > 10 | > 10 | > 10 | > 10 |  |  |  |  |  |  |  | 
COc1ccc(C(=O)c2c[nH]c(-c3ccccc3)n2)cc1OC [12ae, (3,4-dimethoxyphenyl)(2-phenyl-1H-imidazol-4-yl)methanone] |  | > 10 | > 10 | > 10 | > 10 | > 10 | > 10 | > 10 | > 10 |  |  |  |  |  |  |  | 
O=C(c1cccc(F)c1)c1c[nH]c(-c2ccccc2)n1 [12ag, (3-fluorophenyl)(2-phenyl-1H-imidazol-4-yl)methanone] |  | > 10 | > 10 | > 10 | > 10 | > 10 | > 10 | > 10 | > 10 |  |  |  |  |  |  |  | 
COc1cc(C(=O)c2c[nH]c(-c3ccc(F)cc3)n2)cc(OC)c1OC [12ba, (2-(4-fluorophenyl)-1H-imidazol-4-yl)(3,4,5-trimethoxyphenyl)methanone] |  |  |  |  |  |  |  |  |  |  |  | 0.32 ± 0.041 | 0.205 ± 0.019 | 0.169 ± 0.012 | 0.073 ± 0.008 |  | 
COc1ccc(-c2nc(C(=O)c3cc(OC)c(OC)c(OC)c3)c[nH]2)cc1 [12ca, (2-(4-methoxyphenyl)-1H-imidazol-4-yl)(3,4,5-trimethoxyphenyl)methanone] |  |  |  |  |  |  |  |  |  |  |  | 0.108 | 0.03 | 0.045 | 0.031 | 0.031 | 0.0079 to 0.11
